# US7807654B2, “Compositions and methods for treatment of mitochondrial diseases” (Wellstat Therapeutics Corporation, priority 1998, dated 2010)
# How the values were obtained:
# [1] = tested on: mice given intrastriatal QA; assay: Quinolinic acid (QA) model of excitotoxicity; format: in vivo, Swiss mice; details: TAU 4 g/kg bw p.o. b.i.d.
# MPTP treated mice [2] = assay: MPTP model of Parkinson's disease, second study; format: in vivo, C57/BL6 mice; details: MPTP b.i.d. for 2 days, sacrificed on day 9, mean ± SEM
# Procedure: A second study using MPTP (25 mg/kg i.p. b.i.d. for 2 days) was performed. […] TAU or vehicle was given orally (dose of TAU=4 g/kg bw b.i.d.) starting the day before MPTP administration and ending on day 8. Mice were sacrificed on day 9.
# taxol-treated mice = assay: Taxol-induced neuropathy, tail-flick latency; format: in vivo; details: nine days after initiation of taxol 21.6 mg/kg/day i.p. for 6 days; oral triacetyluridine 4000 mg/kg b.i.d.
# Procedure: Two groups of 10 mice each were treated with taxol, 21.6 mg/kg/day for 6 consecutive days by intraperitoneal injection. An additional group of 10 mice received injections of vehicle alone. One of the groups of taxol-treated mice received oral triacetyluridine, 4000 mg/kg b.i.d. Nine days after the initiation of taxol treatments, nociceptive sensory deficits were tested by determining tail-flick latency after exposure of the tip of the tail to focused thermal radiation with an infrared heat lamp. In this system, delays in the tail-flick response to radiant heat correlate with sensory nerve deficits.
# [3] = tested on: child with epilepsy, ataxia, language delay, fat intolerance, dicarboxylic aciduria; assay: Treatment of developmental delay (case, Example 4); format: in vivo, human; details: daily dose of 0.1 to 0.3 g/kg/day
# Procedure: A child with epilepsy, ataxia, language delay, and fat intolerance, and dicarboxylic aciduria was treated with triacetyluridine at a daily dose of 0.1 to 0.3 g/kg/day.
# MPTP treated mice [4] = assay: MPTP model of Parkinson's disease, first study
# [5] = tested on: mice infused with sodium azide; assay: Subcutaneous azide infusion: mortality, body weight, TUNEL staining; set-up: species or system C57/BL/6N mice; details: mouse, in vivo
# 3NP treated mice [6] = assay: 3-nitropropionic acid (3NP) model of Huntington's disease; format: in vivo, Swiss mice; details: at anytime during the study
# Procedure: Male 6-8 month old Swiss mice (National Cancer Institute; NCI, Frederick, Md.) were treated with 3NP (65 mg/kg i.p.) daily for 4 days to induce mortality, neuronal cell loss and behavioral impairment with n=8/group. […] On day 9, the mice were perfuse fixed with 10% buffered formalin and processed for silver staining to detect neuronal damage. […] There was no mortality in the 3NP+TAU group, but 3 of 8 mice died in the vehicle+3NP group.
# Behavioral scoring of the 3NP treated mice was to determine whether there was any motor impairment at anytime during the study. There were 88% of the control+3NP treated mice with behavioral impairment indicated by gross observation. A decreased incidence of impairment of only 50% was found in the TAU+3NP treated mice.
# The silver staining was analyzed by a pathologist blinded to the identity of tissue samples. […] However, in the control+3NP treated mice, silver staining of synaptic terminals in the striatal area (caudate/putamen area) and substantia nigra was pronounced. Silver impregnation of axons and/or synaptic terminals in the thalamus, deep mesencephalon and/or reticular formation (medulla) was also found in […] of the control+3NP treated mice. The substantia nigra projects to the striatum and these areas are especially vulnerable to damage by 3NP. The damage to the substantia nigra and striatum was prevented by TAU.
# 3NP treated mice [7] = assay: 3-nitropropionic acid (3NP) model of epilepsy; format: in vivo, CD-1 mice; details: for Latency to clonic seizure: mean ± SEM
# Source text: 3-nitropropionic acid (3NP) is a mitochondrial toxin that acts by inhibiting Complex II of the respiratory chain; it is used to induce brain lesions similar to those characteristic of Huntington's disease. Seizures can also be induced by the use of 3NP as a model of epilepsy and mitochondrial dysfunction. Urbanska et al., Eur J Pharmacol, 359: 55-8 (1998). Male CD-1 mice (National Cancer Institute, NCI, Frederick. Md.) weighing between […] were used throughout. Mice were divided into groups of 5 and animals for each group were randomly chosen from different cages to avoid possible influence of age. The mice were maintained on a 12 hr light dark cycle with free access to water and food. All experiments were performed during the light period between 9:00 and 16:00 hr. Mice (n=17-20) were given 160 mg/kg 3NP and followed for seizures. 3NP was made up at 16 mg or 18 mg/ml in sterile water (pH: 7.4). 3NP was administered i.p. in a volume of 0.1 m/10 g body weight. […] Seizures were assessed similar to the methods previously described (Roberts & Keith, J Pharmacol Exp Ther, 270:505-11, 1994; Urbanska et al., Eur J Pharmacol, 359:55-8, 1998).
# Behavioral observations were performed within 120 min following application of 3-NP. Three major categories of convulsive seizure response were been considered and recorded: • 1. Clonic movements: the movements of the forelimbs accompanied by facial twitching; • 2. Explosive clonic movements: the movement of all four limbs involving running, jumping and bouncing; • 3. Tonic response: including tonic flexion and tonic extension of the all four limbs.
# Mortality rate was evaluated at 120 min after 3NP injection.
# [8] = 160 mg/kg 3NP i.p., TAU 4 g/kg p.o. 2 hours prior, within 120 min
smiles,measurement,setting,value
"CC(=O)OC[C@H]1O[C@@H](n2ccc(=O)[nH]c2=O)[C@H](OC(C)=O)[C@@H]1OC(C)=O [TAU, triacetyluridine]",percent of mice surviving the 7 days,[1]; 50 nmoles QA bilaterally in striatum,73%
same,percent of mice surviving the 7 days,[1]; 100 nmoles QA bilaterally in striatum,19%
same,"Striatal DA, MPTP-treated mice",MPTP treated mice [2],26.7 ± 0.9 ng DA/mg protein
same,Tail flick latency,taxol-treated mice,11.9 ± 0.7 s
same,decline in seizure frequency,[3],50%
same,mortality,"MPTP treated mice [4]; MPTP 30 mg/kg i.p. b.i.d. for 1.5 days, TAU 4 g/kg p.o. b.i.d.",28.6%
same,"Striatal DA, MPTP-treated mice","MPTP treated mice [4]; first study, eight days after stopping MPTP, mean ± SEM",37.9 ± 7.4 ng DA/mg protein
same,mortality due to 60 μg/hr azide infusion,[5],30%
same,mice with behavioral (motor) impairment by gross observation,3NP treated mice [6],50%
same,Latency to clonic seizure,"3NP treated mice [7]; 160 mg/kg 3NP i.p., TAU 4 g/kg p.o. 2 hours prior",40.8 min
same,Latency to clonic seizure,"3NP treated mice [7]; 160 mg/kg 3NP i.p., TAU 4 g/kg p.o. 2 hours prior, listed as TAU + 3NP",40.8 ± 4.9 min
same,% Clonic seizures,3NP treated mice [7]; [8],70.6%
same,% Running seizures,3NP treated mice [7]; [8],5.9%
same,% Mortality,3NP treated mice [7]; at 120 min after 3NP injection,11.8%
